Test results as given in patent publication US20100160454A1, “ANTIMICROBIAL AGENTS, COMPOSITIONS AND PRODUCTS CONTAINING THE SAME, AND METHODS OF USING THE COMPOSITIONS AND PRODUCTS” (Eastman Chemical Company, priority 2008, published 2010).

What was measured:
Experiment in all cases: Microbiological challenge testing in BPW broth, graded subculture counts
Assay type in all cases: cell-based
[1] = test system: Streptococcus mutans ATCC 35668
Description: (§1) The microorganisms in the table below were used in challenge tests. They were either ATCC (American Type Culture Collection) or “wild type” as indicated. Wild type organisms were problematic organisms previously isolated from chemical products.
(§2) All of the microorganisms were grown in Tryptose Soy Broth (TSB), DIFCO™ available from Becton, Dickinson and Company, containing 1% dextrose. Candida albicans and Aspergillus niger, were incubated at 22° C.+/−2° C. for at least 96 hours. All bacteria were incubated at 35° C.+/−2° C. in a humidified incubator for at least 96 hours.
(§3) The following procedure was followed to determine the amount of each challenge material (inoculum broth) needed to produce a 10^8 CFU/mL challenge, which is equivalent to a final test-sample microbial concentration of 10^5 to 10^6 CFU/mL (CFU=colony forming units).
(§4) Using a sterile pipette, 1 mL of the growth from each TSB culture was transferred into tubes of 9 mL buffered water (pH 7.2 phosphate buffer) and mixed thoroughly. This was repeated to make serial 1:10 dilutions. Then, 0.1 mL of each sample and dilution was inoculated onto agar plates to produce the equivalent of a further 1:10 dilution. (C. albicans and A. niger were inoculated onto SABD and bacteria were inoculated onto Plate Count Agar (PCA), DIFCO™ available from Becton, Dickinson and Company.) (The normal volume plated for most samples was 0.1 mL. Some samples that could be very low in micro-organisms (high dilutions) were plated using 0.5 mL of inoculum, in order to produce reproducible counts.) The samples were distributed on the plates using the spread-plate technique. The spread-plate technique is carried out by spreading the sample over the entire plate surface using a sterile spreading rod while rotating the plate with a rotary auto-plater. After the inoculum was absorbed completely by the agar, each plate was inverted and incubated (fungi at 22° C.+/−2° C. and bacteria at 35° C.+/−2° C.).
(§5) After incubation for at least 48 hours, colonies that had developed on the agar plates were counted (CFU) and recorded with the corresponding dilution. If counting had to be delayed temporarily, plates were refrigerated, preferably no more than 24 hours, until they could be counted. The number of CFU/mL was determined by multiplying the plate count by the dilution factor of the plate counted.
(§6) Turbidity in Nepholemetric Turbidity Units (NTU) was measured for each serial dilution using the HF-Micro 100 Model Turbidimeter. For each microorganism, the plate counts were compared to the turbidity readings.
(§7) Control substrates (“broth alone”) were prepared for each microorganism separately in triplicate by adding 13.5 mL of Buffered Peptone Water broth (BPW) containing 1% dextrose to each 20-mL glass tube, then adding 1.5 mL challenge material to produce a final concentration at time zero of 10^5 to 10^6 CFU/mL and a total volume of 15 mL.
(§8) Test sample substrates were prepared containing each test material listed below at the concentrations shown for challenge testing with each microorganism separately. Sample substrates were prepared in triplicate, except the substrates containing butoxyethanol which were prepared in duplicate. Substrates were prepared by adding BPW containing 1% dextrose to each 20-mL glass tube, then adding the test material in the amount appropriate to achieve the desired weight/volume percent and to achieve a total volume of BPW plus dextrose plus test material of 13.5 mL. Then 1.5 mL challenge material was added to produce a final concentration at time zero of 10^5 to 10^6 CFU/mL and a total test sample substrate volume of 15 mL.

[2] = test system: Escherichia coli ATCC 25922; details: E. Coli
Description: as §1, §2, §3, §4, §5, §6, §7, §8

[3] = test system: Burkholderia cepacia Wild type; details: B. cepacia
Description: as §1, §2, §3, §4, §5, §6, §7, §8

[4] = test system: Staphylococcus aureus ATCC 25923; details: S. aureus
Description: as §1, §2, §3, §4, §5, §6, §7, §8

## OCC1CCC(CO)CC1 (stereo not drawn) [1,4-CHDM, 1,4-cyclohexanedimethanol]
[1]; 2.5% weight/volume
  S. mutans growth grade, 3 day: 2 (52 to 100 colonies counted (thus 520 to 1000 CFU/mL))
  S. mutans growth grade, 13 day: 0
  S. mutans growth grade, 30 day: 0
[1]; 5.0% weight/volume
  S. mutans growth grade, 3 day: 0
  S. mutans growth grade, 13 day: 0
  S. mutans growth grade, 30 day: 0
[2]; 0.5% (wt/vol), 3 day
  Grade: 5 (More than 10,000 colonies estimated (thus more than 100,000 CFU/mL))
[2]; 0.5% (wt/vol), 14 day
  Grade: 4 (1000 to 10,000 colonies countable (thus 10,000 CFU/mL to 100,000 CFU/mL))
[2]; 0.5% (wt/vol), 30 day
  Grade: 4 (1000 to 10,000 colonies countable (thus 10,000 CFU/mL to 100,000 CFU/mL))
[2]; 1.25% (wt/vol), 3 day
  Grade: 4 (1000 to 10,000 colonies countable (thus 10,000 CFU/mL to 100,000 CFU/mL))
[2]; 1.25% (wt/vol), 14 day
  Grade: 4 (1000 to 10,000 colonies countable (thus 10,000 CFU/mL to 100,000 CFU/mL))
[2]; 1.25% (wt/vol), 30 day
  Grade: 4 (1000 to 10,000 colonies countable (thus 10,000 CFU/mL to 100,000 CFU/mL))
[2]; 2.5% (wt/vol), 3 day
  Grade: 3 (100 to 1000 colonies (thus 1000 to 10,000 CFU/mL))
[2]; 2.5% (wt/vol), 14 day
  Grade: 2 (52 to 100 colonies counted (thus 520 to 1000 CFU/mL))
[2]; 2.5% (wt/vol), 30 day
  Grade: 0
[2]; 5.0% (wt/vol), 3 day
  Grade: 0
[2]; 5.0% (wt/vol), 14 day
  Grade: 0
[2]; 5.0% (wt/vol), 30 day
  Grade: 0
[3]; 0.5% (wt/vol), 3 day
  Grade: 4 (1000 to 10,000 colonies countable (thus 10,000 CFU/mL to 100,000 CFU/mL))
[3]; 0.5% (wt/vol), 14 day
  Grade: 4 (1000 to 10,000 colonies countable (thus 10,000 CFU/mL to 100,000 CFU/mL))
[3]; 0.5% (wt/vol), 30 day
  Grade: 4 (1000 to 10,000 colonies countable (thus 10,000 CFU/mL to 100,000 CFU/mL))
[3]; 1.25% (wt/vol), 3 day
  Grade: 4 (1000 to 10,000 colonies countable (thus 10,000 CFU/mL to 100,000 CFU/mL))
[3]; 1.25% (wt/vol), 14 day
  Grade: 2 (52 to 100 colonies counted (thus 520 to 1000 CFU/mL))
[3]; 1.25% (wt/vol), 30 day
  Grade: 4 (1000 to 10,000 colonies countable (thus 10,000 CFU/mL to 100,000 CFU/mL))
[3]; 2.5% (wt/vol), 3 day
  Grade: 0
[3]; 2.5% (wt/vol), 14 day
  Grade: 0
[3]; 2.5% (wt/vol), 30 day
  Grade: 0
[3]; 5.0% (wt/vol), 3 day
  Grade: 0
[3]; 5.0% (wt/vol), 14 day
  Grade: 0
[3]; 5.0% (wt/vol), 30 day
  Grade: 0
[4]; 0.5% (wt/vol), 3 day
  Grade: 4 (1000 to 10,000 colonies countable (thus 10,000 CFU/mL to 100,000 CFU/mL))
[4]; 0.5% (wt/vol), 14 day
  Grade: 4 (1000 to 10,000 colonies countable (thus 10,000 CFU/mL to 100,000 CFU/mL))
[4]; 0.5% (wt/vol), 30 day
  Grade: 4 (1000 to 10,000 colonies countable (thus 10,000 CFU/mL to 100,000 CFU/mL))
[4]; 1.25% (wt/vol), 3 day
  Grade: 3 (100 to 1000 colonies (thus 1000 to 10,000 CFU/mL))
[4]; 1.25% (wt/vol), 14 day
  Grade: 2.7
[4]; 1.25% (wt/vol), 30 day
  Grade: 4 (1000 to 10,000 colonies countable (thus 10,000 CFU/mL to 100,000 CFU/mL))
[4]; 2.5% (wt/vol), 3 day
  Grade: 1.7
[4]; 2.5% (wt/vol), 14 day
  Grade: 1 (0 to 51 colonies counted (thus 10 to 510 CFU/mL based on 0.1-mL sample))
[4]; 2.5% (wt/vol), 30 day
  Grade: 0
[4]; 5.0% (wt/vol), 3 day
  Grade: 0
[4]; 5.0% (wt/vol), 14 day
  Grade: 0
[4]; 5.0% (wt/vol), 30 day
  Grade: 0
